Measurements as given in the NIST ThermoML archive (doi:10.1021/je0496600).
Numbers after ± are expanded uncertainties.

Assay: mn = molality of the nth substance listed, in mol/kg
Details: 101.3 kPa, Liquid; for speed of sound: Sing-around technique in a fixed-path interferometer

O=C[O-].[Na+] [sodium methanoate] + O
Details	mass density, 298.15 K [kg/m3]	speed of sound, 298.15 K [m/s]	speed of sound, 308.15 K [m/s]
m1 = 0.0263	998.164 ± 0.33	1498.6 ± 0.98	1521.7 ± 0.99
m1 = 0.0331	998.451 ± 0.33	1499.1 ± 0.98	1522.1 ± 0.99
m1 = 0.0437	998.896 ± 0.33	1499.7 ± 0.98	1522.7 ± 0.99
m1 = 0.0497	999.147 ± 0.33	1500.1 ± 0.98	1523.1 ± 0.99
m1 = 0.057	999.452 ± 0.33	1500.6 ± 0.98	1523.5 ± 0.99
m1 = 0.0682	999.921 ± 0.33	1501.2 ± 0.98	1524.2 ± 0.99
m1 = 0.0747	1000.2 ± 0.33	1501.6 ± 0.98	1524.5 ± 0.99
m1 = 0.0811	1000.46 ± 0.33	1502.1 ± 0.98	1524.9 ± 0.99
m1 = 0.0909	1000.88 ± 0.33	1502.7 ± 0.98	1525.5 ± 0.99
m1 = 0.0975	1001.15 ± 0.33	1503 ± 0.98	1525.9 ± 0.99
m1 = 0.1428	1003.03 ± 0.34	1505.9 ± 0.99	1528.5 ± 0.99
m1 = 0.2955	1009.33 ± 0.36	1515.1 ± 0.99	1536.9 ± 0.99
m1 = 0.4697	1016.34 ± 0.39	1525.2 ± 0.99	1546.2 ± 1
m1 = 0.6887	1024.99 ± 0.43	1537.7 ± 1	1557.7 ± 1
m1 = 0.8366	1030.69 ± 0.45	1546 ± 1	1565.3 ± 1
m1 = 0.9653	1035.61 ± 0.47	1553.1 ± 1	1571.8 ± 1
m1 = 1.139	1042.15 ± 0.5	1562.4 ± 1	1580.4 ± 1
m1 = 1.233	1045.63 ± 0.51	1567.5 ± 1	1585 ± 1
m1 = 1.496	1055.23 ± 0.55	1581.2 ± 1	1597.5 ± 1
m1 = 2.188	1079.46 ± 0.65	1615.3 ± 1	1628.8 ± 1
m1 = 2.783	1099.17 ± 0.73	1642.8 ± 1.1	1653.9 ± 1.1
m1 = 3.458	1120.32 ± 0.82	1671.7 ± 1.1	1680.4 ± 1.1
m1 = 4.201	1142.29 ± 0.91	1701.1 ± 1.1	1707.2 ± 1.1
m1 = 4.966	1163.55 ± 1	1729.1 ± 1.1	1732.7 ± 1.1
m1 = 6.561	1204.09 ± 1.2	1779.4 ± 1.2	1778.7 ± 1.2
m1 = 7.737	1230.99 ± 1.3	1811.1 ± 1.2	1807.6 ± 1.2
m1 = 8.551	1248.27 ± 1.4	1830.5 ± 1.2	1825.3 ± 1.2
m1 = 10.05	1277.62 ± 1.5	1862.1 ± 1.2	1854.1 ± 1.2
